≈ marks a conversion by molar mass, not a printed value.
Columns and labels:
NCI-H226 = assay: Growth inhibition of human NCI-H226 cells assessed as cell growth at 10^-5 M incubated for 48 hrs by sulforhodamine B assay relative to control; assay type: cell-based; parameters: scale not given: the % may be the effect or the level left; settings: nci-h226, 48 h, 10 µM
MDA-MB-435 = assay: Growth inhibition of human MDA-MB-435 cells assessed as cell growth at 10^-5 M incubated for 48 hrs by sulforhodamine B assay relative to control; assay type: cell-based; parameters: scale not given: the % may be the effect or the level left; settings: mda-mb-435, 48 h, 10 µM
M14 = assay: Growth inhibition of human M14 cells assessed as cell growth at 10^-5 M incubated for 48 hrs by sulforhodamine B assay relative to control; assay type: cell-based; parameters: scale not given: the % may be the effect or the level left; settings: m14, 48 h, 10 µM
UACC-62 = assay: Growth inhibition of human UACC62 cells assessed as cell growth at 10^-5 M incubated for 48 hrs by sulforhodamine B assay relative to control; assay type: cell-based; parameters: scale not given: the % may be the effect or the level left; settings: uacc-62, 48 h, 10 µM
U-251 = assay: Growth inhibition of human U251 cells assessed as cell growth at 10^-5 M incubated for 48 hrs by sulforhodamine B assay relative to control; assay type: cell-based; parameters: scale not given: the % may be the effect or the level left; settings: u-251, 48 h, 10 µM
NCI/ADR-RES = assay: Growth inhibition of human NCI/ADR-RES cells assessed as cell growth at 10^-5 M incubated for 48 hrs by sulforhodamine B assay relative to control; assay type: cell-based; parameters: scale not given: the % may be the effect or the level left; settings: 10 µM
PC-3 = assay: Growth inhibition of human PC3 cells assessed as cell growth at 10^-5 M incubated for 48 hrs by sulforhodamine B assay relative to control; assay type: cell-based; parameters: scale not given: the % may be the effect or the level left; settings: pc-3, 48 h, 10 µM
HOP-62 = assay: Growth inhibition of human HOP62 cells assessed as cell growth at 10^-5 M incubated for 48 hrs by sulforhodamine B assay relative to control; assay type: cell-based; parameters: scale not given: the % may be the effect or the level left; settings: hop-62, 48 h, 10 µM
Aspergillus fumigatus [1] = assay: Antifungal activity against Aspergillus fumigatus RCMB 02568 assessed as diameter of zone inhibition after 48 hrs by agar well diffusion assay; assay type: functional
RPMI-8226 = assay: Growth inhibition of human RPMI8226 cells assessed as cell growth at 10^-5 M incubated for 48 hrs by sulforhodamine B assay relative to control; assay type: cell-based; parameters: scale not given: the % may be the effect or the level left; settings: rpmi-8226, 48 h, 10 µM
SK-OV-3 = assay: Growth inhibition of human SKOV3 cells assessed as cell growth at 10^-5 M incubated for 48 hrs by sulforhodamine B assay relative to control; assay type: cell-based; parameters: scale not given: the % may be the effect or the level left; settings: sk-ov-3, 48 h, 10 µM
WI-38 = assay: Cytotoxicity against human WI38 cells by MTT assay; assay type: cell-based
Escherichia coli [2] = assay: Potency index, ratio of ciprofloxacin MIC to compound MIC for Escherichia coli RCMB 010052; assay type: functional
LOX IMVI = assay: Growth inhibition of human LOXIMVI cells assessed as cell growth at 10^-5 M incubated for 48 hrs by sulforhodamine B assay relative to control; assay type: cell-based; parameters: scale not given: the % may be the effect or the level left; settings: 10 µM
NCI-H522 = assay: Growth inhibition of human NCI-H522 cells assessed as cell growth at 10^-5 M incubated for 48 hrs by sulforhodamine B assay relative to control; assay type: cell-based; parameters: scale not given: the % may be the effect or the level left; settings: nci-h522, 48 h, 10 µM
HCC 2998 = assay: Growth inhibition of human HCC2998 cells assessed as cell growth at 10^-5 M incubated for 48 hrs by sulforhodamine B assay relative to control; assay type: cell-based; parameters: scale not given: the % may be the effect or the level left; settings: hcc 2998, 48 h, 10 µM
Escherichia coli [3] = assay: Antibacterial activity against Escherichia coli RCMB 010052 assessed as diameter of zone inhibition after 24 hrs by agar well diffusion assay; assay type: functional
SF-295 = assay: Growth inhibition of human SF295 cells assessed as cell growth at 10^-5 M incubated for 48 hrs by sulforhodamine B assay relative to control; assay type: cell-based; parameters: scale not given: the % may be the effect or the level left; settings: sf-295, 48 h, 10 µM
SF-268 = assay: Growth inhibition of human SF268 cells assessed as cell growth at 10^-5 M incubated for 48 hrs by sulforhodamine B assay relative to control; assay type: cell-based; parameters: scale not given: the % may be the effect or the level left; settings: sf-268, 48 h, 10 µM
Mycolicibacterium aurum = assay: Antitubercular activity against Mycobacterium aurum infected in mouse RAW264.7 cells measured after 48 hrs; assay type: functional
A498 = assay: Growth inhibition of human A498 cells assessed as cell growth at 10^-5 M incubated for 48 hrs by sulforhodamine B assay relative to control; assay type: cell-based; parameters: scale not given: the % may be the effect or the level left; settings: a498, 48 h, 10 µM
MDA-MB-231 = assay: Growth inhibition of human MDA-MB-231 cells assessed as cell growth at 10^-5 M incubated for 48 hrs by sulforhodamine B assay relative to control; assay type: cell-based; parameters: scale not given: the % may be the effect or the level left; settings: mda-mb-231, 48 h, 10 µM
MCF7 = assay: Growth inhibition of human MCF7 cells assessed as cell growth at 10^-5 M incubated for 48 hrs by sulforhodamine B assay relative to control; assay type: cell-based; parameters: scale not given: the % may be the effect or the level left; settings: mcf7, 48 h, 10 µM
NCI-H23 = assay: Growth inhibition of human NCI-H23 cells assessed as cell growth at 10^-5 M incubated for 48 hrs by sulforhodamine B assay relative to control; assay type: cell-based; parameters: scale not given: the % may be the effect or the level left; settings: nci-h23, 48 h, 10 µM
786-0 = assay: Growth inhibition of human 786-0 cells assessed as cell growth at 10^-5 M incubated for 48 hrs by sulforhodamine B assay relative to control; assay type: cell-based; parameters: scale not given: the % may be the effect or the level left; settings: 786-0, 48 h, 10 µM
[4] = Selectivity index, ratio of IC50 for human WI38 cells to MIC for Mycobacterium tuberculosis RCMB 010126 clinical isolate; assay type: toxicity; settings: read-out: Selectivity Index
COLO 205 = assay: Growth inhibition of human COLO205 cells assessed as cell growth at 10^-5 M incubated for 48 hrs by sulforhodamine B assay relative to control; assay type: cell-based; parameters: scale not given: the % may be the effect or the level left; settings: colo 205, 48 h, 10 µM
TK-10 = assay: Growth inhibition of human TK10 cells assessed as cell growth at 10^-5 M incubated for 48 hrs by sulforhodamine B assay relative to control; assay type: cell-based; parameters: scale not given: the % may be the effect or the level left; settings: tk-10, 48 h, 10 µM
SK-MEL-5 = assay: Growth inhibition of human SK-MEL-5 cells assessed as cell growth at 10^-5 M incubated for 48 hrs by sulforhodamine B assay relative to control; assay type: cell-based; parameters: scale not given: the % may be the effect or the level left; settings: sk-mel-5, 48 h, 10 µM
NCI-H322M = assay: Growth inhibition of human NCI-H322M cells assessed as cell growth at 10^-5 M incubated for 48 hrs by sulforhodamine B assay relative to control; assay type: cell-based; parameters: scale not given: the % may be the effect or the level left; settings: 10 µM
Candida albicans = assay: Antifungal activity against Candida albicans RCMB 05036 after 24 hrs by serial dilution method; assay type: functional; settings: RCMB 05036, 24 h
IGROV-1 = assay: Growth inhibition of human IGROV1 cells assessed as cell growth at 10^-5 M incubated for 48 hrs by sulforhodamine B assay relative to control; assay type: cell-based; parameters: scale not given: the % may be the effect or the level left; settings: igrov-1, 48 h, 10 µM
UO-31 = assay: Growth inhibition of human UO31 cells assessed as cell growth at 10^-5 M incubated for 48 hrs by sulforhodamine B assay relative to control; assay type: cell-based; parameters: scale not given: the % may be the effect or the level left; settings: uo-31, 48 h, 10 µM
SR = assay: Growth inhibition of human SR cells assessed as cell growth at 10^-5 M incubated for 48 hrs by sulforhodamine B assay relative to control; assay type: cell-based; parameters: scale not given: the % may be the effect or the level left; settings: 10 µM
Staphylococcus aureus = assay: Antibacterial activity against Staphylococcus aureus RCMB 010028 assessed as diameter of zone inhibition after 24 hrs by agar well diffusion assay; assay type: functional
Aspergillus fumigatus [5] = assay: Antifungal activity against Aspergillus fumigatus RCMB 02568 after 24 hrs by serial dilution method; assay type: functional; settings: RCMB 02568, 24 h

Row | SMILES | Activity (NCI-H226) [%] | Activity (MDA-MB-435) [%] | Activity (M14) [%] | Activity (UACC-62) [%] | Activity (U-251) [%] | Activity (NCI/ADR-RES) [%] | Activity (PC-3) [%] | Activity (HOP-62) [%] | diameter of the inhibition zone (DIZ) (Aspergillus fumigatus [1]) [mm] | Activity (RPMI-8226) [%] | Activity (SK-OV-3) [%] | IC50 (WI-38) [µg/mL] | Ratio (Escherichia coli [2]) | Activity (LOX IMVI) [%] | Activity (NCI-H522) [%] | Activity (HCC 2998) [%] | diameter of the inhibition zone (DIZ) (Escherichia coli [3]) [mm] | Activity (SF-295) [%] | Activity (SF-268) [%] | MIC (Mycolicibacterium aurum) [µg/mL] | further results
1 | CCOC(=O)c1sc(/N=C2\NC(=O)/C(=C3/C(=O)N(Cc4ccccc4)c4ccc(Cl)cc43)S2)nc1C | 94.7 | 107.3 | 98.8 | 103.68 | 99.74 | 101.26 | 91.84 | 98.01 | 21.3 | 99.02 | 103.42 | 52.1 (≈ 96.7 µM) | 2 | 96.03 | 90.82 | 109.14 | 23.4 | 103.03 | 93.91 | 50 (≈ 92.8 µM) | Activity (A498): 104.48%; Activity (MDA-MB-231): 100.41%; Activity (MCF7): 97.06%; Activity (NCI-H23): 96.32%; Activity (786-0): 103.02%; selectivity ratio [4]: 133; Activity (COLO 205): 101.47%; Activity (TK-10): 97.92%; Activity (SK-MEL-5): 101.5%; Activity (NCI-H322M): 111.22%; MIC (Candida albicans): 1.95 µg/mL (≈ 3.62 µM); Activity (IGROV-1): 105.63%; Activity (UO-31): 91.72%; Activity (SR): 102.18%; diameter of the inhibition zone (DIZ) (Staphylococcus aureus): 22.5 mm; MIC (Aspergillus fumigatus [5]): 1.95 µg/mL (≈ 3.62 µM)
2 | CC(=O)c1sc(/N=C2\NC(=O)/C(=C3/C(=O)N(C)c4ccc(Cl)cc43)S2)nc1C | 94.2 | 101.04 | 100.08 | 84.61 | 113.76 | 99.92 | 96.23 | 116.23 | 22.2 | 110.22 | 117.19 | 19.5 (≈ 45 µM) | 4 | 88.14 | 88.75 | 112.5 | 25.1 | 101.25 | 98.04 | 25 (≈ 57.7 µM) | Activity (A498): 104.41%; Activity (MDA-MB-231): 91.15%; Activity (MCF7): 86.13%; Activity (NCI-H23): 96.3%; Activity (786-0): 106.86%; selectivity ratio [4]: 50; Activity (COLO 205): 108.28%; Activity (TK-10): 118.37%; Activity (SK-MEL-5): 97.1%; Activity (NCI-H322M): 96.29%; MIC (Candida albicans): 0.49 µg/mL (≈ 1.13 µM); Activity (IGROV-1): 94.36%; Activity (UO-31): 90.16%; Activity (SR): 115.03%; diameter of the inhibition zone (DIZ) (Staphylococcus aureus): 22.4 mm; MIC (Aspergillus fumigatus [5]): 0.98 µg/mL (≈ 2.26 µM)
